# Values joined by “and” are separate entries in the source; they are usually repeats but may differ in a detail not shown here. Equal entries are not always repeated.
# Tested on: db/db mice
# Test: Blood-sugar-lowering activity in db/db obese mice (oral, daily for 5 days)
# Format: in vivo
# Conditions: for % change in blood glucose after 5 days of treatment (decrease): reduction vs day 0
# Method: Db/db mice are commonly used as an in vivo model for studying type II diabetes in animals. Db/db (C57BLKS/J-m+/+Lepr^db) obese mice are obtained from Jackson Laboratories (Maine) and maintained in a temperature-controlled (25° C.) facility with a strict 12-h light/dark cycle and given free access to food and water. Mice are fed pelleted rodent chow which is low in fat (4% w/w). Fasting mice are orally administered with isovitexin dissolved in aqueous vehicle containing 50% PEG50% (10 mg/kg body weight) in a total volume of 200 μL or vehicle alone daily for 5 days. Food is removed from mice 4 hours before the collection of blood from the tail vein. Blood is obtained from mice by drawing one drop of blood (˜50 μL) from the tail vein for glucose analysis. Blood glucose is analyzed using a digital glucometer. Db/db obese mice (n=3: test; n=4: vehicle) were treated daily with 200 μL of isovitexin dissolved in an aqueous solution of PEG 50% (10 mg/kg body weight) or vehicle alone for 5 days. Blood glucose was estimated on day 0, one day prior to initiation of the treatment and on day 5, four hours after withdrawal of food. Blood was obtained from mice by drawing one drop of blood (˜50 μL) from the tail vein for glucose analysis. Blood glucose was analyzed using a digital glucometer and performed in duplicate. Blood glucose values are described as mg/dL±SD. The blood glucose levels in the vehicle treated group (n=4) were 446±35 on day 0 and 477±48 on day 5. […] The results are summarized in Tables 1 and 2 below, and FIG. 1.
structure (smiles),measurement,setting,value
"O=c1cc(-c2ccc(O)cc2)oc2cc(O)c([C@@H]3O[C@H](CO)[C@@H](O)[C@H](O)[C@H]3O)c(O)c12 [Isovitexin, 4H-1-benzopyran-4-one, 6-β-D-glucopyranosyl-5,7-dihydroxy-2-(4-hydroxyphenyl)]","blood glucose levels, group mean on day 0","db/db mice n=3, isovitexin group before treatment, ± SD",493 ± 54 mg/dL
same,"blood glucose levels, group mean on day 5","db/db mice n=3, oral 10 mg/kg daily for 5 days, ± SD",404 ± 10 mg/dL
same,lowering of blood glucose (in words),"db/db mice, 10 mg/kg body weight",effective in lowering of blood glucose
same,"blood glucose levels, before treatment (day 0), individual mouse","db/db mice, isovitexin group baseline day 0, one day prior to treatment, ± SD of duplicate",473 ± 6.36 mg/dL and 554 ± 7.07 mg/dL and 451 ± 21 mg/dL
same,"blood glucose levels, after treatment with isovitexin (day 5), individual mouse","db/db mice, oral 10 mg/kg daily for 5 days, 4 h after food withdrawal, ± SD of duplicate, 10 mg/kg",400 ± .71 mg/dL and 415 ± 21.9 mg/dL and 396 ± 2.12 mg/dL
same,% change in blood glucose after 5 days of treatment (decrease),"db/db mice, oral 10 mg/kg daily for 5 days, 10 mg/kg",17.8 ± 7.21 (decrease) %
same,% change in blood glucose after 5 days of treatment (decrease),"db/db mice, oral 10 mg/kg daily for 5 days, listed as DP-1032T, 10 mg/kg",~17.8%

# — patent publication US7338941B2, “Pharmaceutical compositions for lowering blood glucose and blood cholesterol levels” (Diakron Pharmaceuticals, Inc., priority 2002, dated 2008)
